The source of these data is patent publication US20250152585A1, “PHARMACEUTICAL COMPOUND” (Duke Street Bio Limited, priority 2022, published 2025).

pIC50, pKd: −log10 of the molar value.

T2 sequence (Q9UGN5 whole entry, the tested form may be a part): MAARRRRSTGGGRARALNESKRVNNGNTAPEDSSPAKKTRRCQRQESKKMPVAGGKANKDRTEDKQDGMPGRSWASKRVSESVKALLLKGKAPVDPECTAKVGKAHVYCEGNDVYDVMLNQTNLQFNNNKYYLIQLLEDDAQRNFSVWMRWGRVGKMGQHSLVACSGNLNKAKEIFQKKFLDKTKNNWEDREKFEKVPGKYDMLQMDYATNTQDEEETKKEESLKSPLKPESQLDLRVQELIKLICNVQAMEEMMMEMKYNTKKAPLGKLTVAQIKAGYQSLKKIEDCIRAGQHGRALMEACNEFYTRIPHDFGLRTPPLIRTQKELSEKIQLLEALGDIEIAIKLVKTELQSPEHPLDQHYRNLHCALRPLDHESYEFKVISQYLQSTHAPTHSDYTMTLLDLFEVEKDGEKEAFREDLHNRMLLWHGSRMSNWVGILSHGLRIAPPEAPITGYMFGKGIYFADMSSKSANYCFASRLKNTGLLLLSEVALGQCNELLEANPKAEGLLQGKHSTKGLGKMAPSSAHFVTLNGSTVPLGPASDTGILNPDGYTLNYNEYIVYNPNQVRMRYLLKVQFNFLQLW

For the first experiment, the target named is T1, full length N-terminally FLAG-tagged PARP1 (Homo sapiens, UniProt P09874). The experiment can be described thus: PARP1 probe displacement HTRF assay. Conditions: PARP1 over PARP2, ratio Kd (PARP2)/Kd (PARP1), probe displacement HTRF.
T1 sequence (P09874 whole entry): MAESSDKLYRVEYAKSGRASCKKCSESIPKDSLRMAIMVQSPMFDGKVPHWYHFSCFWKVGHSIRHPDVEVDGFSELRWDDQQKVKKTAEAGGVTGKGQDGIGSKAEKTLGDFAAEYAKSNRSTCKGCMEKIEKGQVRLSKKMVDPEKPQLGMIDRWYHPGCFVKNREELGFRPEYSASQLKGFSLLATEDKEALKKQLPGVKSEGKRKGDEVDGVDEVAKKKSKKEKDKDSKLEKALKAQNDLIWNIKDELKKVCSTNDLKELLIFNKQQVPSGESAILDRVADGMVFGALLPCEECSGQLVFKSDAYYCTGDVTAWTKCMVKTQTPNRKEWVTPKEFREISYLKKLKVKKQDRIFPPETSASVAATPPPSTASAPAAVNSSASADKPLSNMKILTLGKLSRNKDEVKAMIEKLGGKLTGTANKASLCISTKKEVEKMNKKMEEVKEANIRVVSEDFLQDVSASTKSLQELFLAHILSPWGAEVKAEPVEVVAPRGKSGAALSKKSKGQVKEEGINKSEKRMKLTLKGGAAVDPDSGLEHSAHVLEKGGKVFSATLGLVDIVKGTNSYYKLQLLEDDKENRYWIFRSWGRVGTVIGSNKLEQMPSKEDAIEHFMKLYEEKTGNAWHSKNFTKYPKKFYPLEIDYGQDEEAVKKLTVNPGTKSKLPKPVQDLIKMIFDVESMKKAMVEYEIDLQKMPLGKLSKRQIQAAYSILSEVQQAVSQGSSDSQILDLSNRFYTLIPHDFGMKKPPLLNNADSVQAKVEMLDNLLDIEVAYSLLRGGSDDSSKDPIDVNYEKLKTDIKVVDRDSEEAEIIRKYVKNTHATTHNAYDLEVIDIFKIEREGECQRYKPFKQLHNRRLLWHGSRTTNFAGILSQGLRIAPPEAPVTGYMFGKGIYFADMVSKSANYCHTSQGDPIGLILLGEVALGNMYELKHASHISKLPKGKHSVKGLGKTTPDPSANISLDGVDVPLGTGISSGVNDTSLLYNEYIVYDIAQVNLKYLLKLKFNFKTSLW
As to `CCc1ccc(C2CCN(C3CCN(c4ccc(C#N)cc4Cl)CC3)C2)[nH]c1=O` (single isomer, unassigned) [Compound 377a], the Selectivity entry is recorded as “+++ (+++ indicate a value of at least 100)”.

Regarding `CCc1ccc(C2CCN(C3CCN(c4ccc(C#N)cc4Cl)CC3)C2)[nH]c1=O` (single isomer, unassigned) [Compound 377b], the Selectivity entry was “+++ (+++ indicate a value of at least 100)”.

In the case of `N#Cc1ccc(N2CCC(N3CCC(c4cc5cccc(F)c5c(=O)[nH]4)C3)CC2)c(Cl)c1` (single isomer, unassigned) [Compound 378a], the Selectivity entry is given as “+++ (+++ indicate a value of at least 100)”.

With `N#Cc1ccc(N2CCC(N3CCC(c4cc5cccc(F)c5c(=O)[nH]4)C3)CC2)c(Cl)c1` (single isomer, unassigned) [Compound 378b], the Selectivity result is listed as “+++ (+++ indicate a value of at least 100)”.

For the molecule `CCc1ccc(C2CCN(C3CCN(c4ccc(OC(F)F)nc4)CC3)C2)[nH]c1=O` (single isomer, unassigned) [Compound 382a], the Selectivity entry was “+ (+ indicates a value of 10 to less than 50)”.

Regarding `CCc1ccc(C2CCN(C3CCN(c4ccc(OC(F)F)nc4)CC3)C2)[nH]c1=O` (single isomer, unassigned) [Compound 382b], the Selectivity entry is recorded as “+++ (+++ indicate a value of at least 100)”.

Regarding `N#Cc1ccc(N2CCC(N3CCC(c4cc5ccc(F)cc5c(=O)[nH]4)C3)CC2)c(F)c1` (single isomer, unassigned) [Compound 385a], the Selectivity result is listed as “+++ (+++ indicate a value of at least 100)”.

With `N#Cc1ccc(N2CCC(N3CCC(c4cc5ccc(F)cc5c(=O)[nH]4)C3)CC2)c(F)c1` (single isomer, unassigned) [Compound 385b], the Selectivity result was “+++ (+++ indicate a value of at least 100)”.

Take `N#Cc1ccc(N2CCC(N3CCC(c4cc5ccc(F)cc5c(=O)[nH]4)C3)CC2)c(Cl)c1` (single isomer, unassigned) [Compound 386a]: the Selectivity entry is “+++ (+++ indicate a value of at least 100)”.

In the case of `N#Cc1ccc(N2CCC(N3CCC(c4cc5ccc(F)cc5c(=O)[nH]4)C3)CC2)c(Cl)c1` (single isomer, unassigned) [Compound 386b], the Selectivity entry is “+++ (+++ indicate a value of at least 100)”.

For the molecule `O=C(NCC(F)F)c1ccc(N2CCC(N3CCC(c4cc5cccc(F)c5c(=O)[nH]4)C3)CC2)c(F)n1` (single isomer, unassigned) [Compound 390a], the Selectivity result is listed as “+++ (+++ indicate a value of at least 100)”.

The experiment is the same for the next values; noted with them: read-out: PARP1 HTRF; binned Kd, probe displacement HTRF.
Turning to `CCc1ccc(C2CCN(C3CCN(c4ccc(C#N)cc4Cl)CC3)C2)[nH]c1=O` (single isomer, unassigned) [Compound 377a], the pKd was 7.00 to 8.00.

Consider `CCc1ccc(C2CCN(C3CCN(c4ccc(C#N)cc4Cl)CC3)C2)[nH]c1=O` (single isomer, unassigned) [Compound 377b], for which the pKd was greater than 8.00.

Take `N#Cc1ccc(N2CCC(N3CCC(c4cc5cccc(F)c5c(=O)[nH]4)C3)CC2)c(Cl)c1` (single isomer, unassigned) [Compound 378a]: the pKd is greater than 8.00.

Take `N#Cc1ccc(N2CCC(N3CCC(c4cc5cccc(F)c5c(=O)[nH]4)C3)CC2)c(Cl)c1` (single isomer, unassigned) [Compound 378b]: the pKd is greater than 8.00.

Take `CCc1ccc(C2CCN(C3CCN(c4ccc(OC(F)F)nc4)CC3)C2)[nH]c1=O` (single isomer, unassigned) [Compound 382a]: the pKd is 6.00 to 7.00.

In the case of `CCc1ccc(C2CCN(C3CCN(c4ccc(OC(F)F)nc4)CC3)C2)[nH]c1=O` (single isomer, unassigned) [Compound 382b], the pKd is greater than 8.00.

Consider `N#Cc1ccc(N2CCC(N3CCC(c4cc5ccc(F)cc5c(=O)[nH]4)C3)CC2)c(F)c1` (single isomer, unassigned) [Compound 385a], for which the pKd is greater than 8.00.

Consider `N#Cc1ccc(N2CCC(N3CCC(c4cc5ccc(F)cc5c(=O)[nH]4)C3)CC2)c(F)c1` (single isomer, unassigned) [Compound 385b], for which the pKd was greater than 8.00.

Regarding `N#Cc1ccc(N2CCC(N3CCC(c4cc5ccc(F)cc5c(=O)[nH]4)C3)CC2)c(Cl)c1` (single isomer, unassigned) [Compound 386a], the pKd is greater than 8.00.

`N#Cc1ccc(N2CCC(N3CCC(c4cc5ccc(F)cc5c(=O)[nH]4)C3)CC2)c(Cl)c1` (single isomer, unassigned) [Compound 386b]: the pKd is greater than 8.00.

As for `O=C(NCC(F)F)c1ccc(N2CCC(N3CCC(c4cc5cccc(F)c5c(=O)[nH]4)C3)CC2)c(F)n1` (single isomer, unassigned) [Compound 390a], the pKd is greater than 8.00.

The next experiment has as its target T2, N-terminally FLAG-tagged PARP2 (amino acids 1-583) (Homo sapiens, UniProt Q9UGN5).
T2 construct: N-terminally FLAG-tagged PARP2 (amino acids 1-583)
The experiment can be described thus: PARP2 probe displacement HTRF assay. The format is binding. Conditions: binned Kd, probe displacement HTRF. The procedure:
Data analysis was performed identical as for PARP1.
The molecule `CCc1ccc(C2CCN(C3CCN(c4ccc(C#N)cc4Cl)CC3)C2)[nH]c1=O` (single isomer, unassigned) [Compound 377a] had a pKd of less than 5.00.

For the molecule `CCc1ccc(C2CCN(C3CCN(c4ccc(C#N)cc4Cl)CC3)C2)[nH]c1=O` (single isomer, unassigned) [Compound 377b], the pKd is 5.00 to 6.00.

`N#Cc1ccc(N2CCC(N3CCC(c4cc5cccc(F)c5c(=O)[nH]4)C3)CC2)c(Cl)c1` (single isomer, unassigned) [Compound 378a] showed a pKd of 6.00 to 7.00.

Consider `N#Cc1ccc(N2CCC(N3CCC(c4cc5cccc(F)c5c(=O)[nH]4)C3)CC2)c(Cl)c1` (single isomer, unassigned) [Compound 378b], for which the pKd is 5.00 to 6.00.

Consider `CCc1ccc(C2CCN(C3CCN(c4ccc(OC(F)F)nc4)CC3)C2)[nH]c1=O` (single isomer, unassigned) [Compound 382a], for which the pKd is less than 5.00.

On to `CCc1ccc(C2CCN(C3CCN(c4ccc(OC(F)F)nc4)CC3)C2)[nH]c1=O` (single isomer, unassigned) [Compound 382b], for which the pKd was 6.00 to 7.00.

In turn, `N#Cc1ccc(N2CCC(N3CCC(c4cc5ccc(F)cc5c(=O)[nH]4)C3)CC2)c(F)c1` (single isomer, unassigned) [Compound 385a] showed a pKd of 5.00 to 6.00.

The molecule `N#Cc1ccc(N2CCC(N3CCC(c4cc5ccc(F)cc5c(=O)[nH]4)C3)CC2)c(F)c1` (single isomer, unassigned) [Compound 385b] had a pKd of 7.00 to 8.00.

As to `N#Cc1ccc(N2CCC(N3CCC(c4cc5ccc(F)cc5c(=O)[nH]4)C3)CC2)c(Cl)c1` (single isomer, unassigned) [Compound 386a], the pKd was 6.00 to 7.00.

Turning to `N#Cc1ccc(N2CCC(N3CCC(c4cc5ccc(F)cc5c(=O)[nH]4)C3)CC2)c(Cl)c1` (single isomer, unassigned) [Compound 386b], the pKd was 5.00 to 6.00.

As to `O=C(NCC(F)F)c1ccc(N2CCC(N3CCC(c4cc5cccc(F)c5c(=O)[nH]4)C3)CC2)c(F)n1` (single isomer, unassigned) [Compound 390a], the pKd was 6.00 to 7.00.

The next experiment deals with T1, full length N-terminally FLAG-tagged PARP1. As to the kind of experiment: PARP1 biochemical DELFIA assay (auto-PARylation). Details: recombinant full length human N-terminally FLAG-tagged PARP1. Conditions: binned IC50, biochemical auto-PARylation assay.
With `CCc1ccc(C2CCN(C3CCN(c4ccc(C#N)cc4Cl)CC3)C2)[nH]c1=O` (single isomer, unassigned) [Compound 377a], the pIC50 was 7.00 to 8.00.

Take `CCc1ccc(C2CCN(C3CCN(c4ccc(C#N)cc4Cl)CC3)C2)[nH]c1=O` (single isomer, unassigned) [Compound 377b]: the pIC50 is greater than 8.00.

Consider `N#Cc1ccc(N2CCC(N3CCC(c4cc5cccc(F)c5c(=O)[nH]4)C3)CC2)c(Cl)c1` (single isomer, unassigned) [Compound 378a], for which the pIC50 is greater than 8.00.

Take `N#Cc1ccc(N2CCC(N3CCC(c4cc5cccc(F)c5c(=O)[nH]4)C3)CC2)c(Cl)c1` (single isomer, unassigned) [Compound 378b]: the pIC50 was greater than 8.00.

As for `CCc1ccc(C2CCN(C3CCN(c4ccc(OC(F)F)nc4)CC3)C2)[nH]c1=O` (single isomer, unassigned) [Compound 382a], the pIC50 was 6.00 to 7.00.

Regarding `CCc1ccc(C2CCN(C3CCN(c4ccc(OC(F)F)nc4)CC3)C2)[nH]c1=O` (single isomer, unassigned) [Compound 382b], the pIC50 is greater than 8.00.

Consider `N#Cc1ccc(N2CCC(N3CCC(c4cc5ccc(F)cc5c(=O)[nH]4)C3)CC2)c(F)c1` (single isomer, unassigned) [Compound 385a], for which the pIC50 was greater than 8.00.

On to `N#Cc1ccc(N2CCC(N3CCC(c4cc5ccc(F)cc5c(=O)[nH]4)C3)CC2)c(F)c1` (single isomer, unassigned) [Compound 385b], for which the pIC50 is greater than 8.00.

On to `N#Cc1ccc(N2CCC(N3CCC(c4cc5ccc(F)cc5c(=O)[nH]4)C3)CC2)c(Cl)c1` (single isomer, unassigned) [Compound 386a], for which the pIC50 is greater than 8.00.

As to `N#Cc1ccc(N2CCC(N3CCC(c4cc5ccc(F)cc5c(=O)[nH]4)C3)CC2)c(Cl)c1` (single isomer, unassigned) [Compound 386b], the negative-log IC50 (pIC50) was greater than 8.00.

Regarding `O=C(NCC(F)F)c1ccc(N2CCC(N3CCC(c4cc5cccc(F)c5c(=O)[nH]4)C3)CC2)c(F)n1` (single isomer, unassigned) [Compound 390a], the pIC50 was greater than 8.00.
